Patent US20070172422A1, “Exponential pattern recognition based cellular targeting compositions, methods and anticancer applications” (priority 2001, published 2007)

Columns and labels:
[1] = times more potent than doxorubicin; cited from earlier work
PSMA = PSMA (Homo sapiens, UniProt Q04609); test: inhibition of the enzymatic activity of PSMA; assay type: biochemical
Experimental: The ability of Compound 8 to inhibit the enzymatic activity of PSMA (and consequently to bind to the enzyme) was evaluated using the method described previously in Ser. No. 09/712,465 Nov. 15, 2000 Glazier, Arnold. “Selective Cellular Targeting: Multifunctional Delivery Vehicles, Multifunctional Prodrugs, Use as Neoplastic Drugs. The IC50 for Compound 8 was 8 nanomolar.

[2] = test system: cells including adriamycin resistant tumor lines; details: cited from earlier work

PSMA, sequence (Q04609 whole entry, species assumed): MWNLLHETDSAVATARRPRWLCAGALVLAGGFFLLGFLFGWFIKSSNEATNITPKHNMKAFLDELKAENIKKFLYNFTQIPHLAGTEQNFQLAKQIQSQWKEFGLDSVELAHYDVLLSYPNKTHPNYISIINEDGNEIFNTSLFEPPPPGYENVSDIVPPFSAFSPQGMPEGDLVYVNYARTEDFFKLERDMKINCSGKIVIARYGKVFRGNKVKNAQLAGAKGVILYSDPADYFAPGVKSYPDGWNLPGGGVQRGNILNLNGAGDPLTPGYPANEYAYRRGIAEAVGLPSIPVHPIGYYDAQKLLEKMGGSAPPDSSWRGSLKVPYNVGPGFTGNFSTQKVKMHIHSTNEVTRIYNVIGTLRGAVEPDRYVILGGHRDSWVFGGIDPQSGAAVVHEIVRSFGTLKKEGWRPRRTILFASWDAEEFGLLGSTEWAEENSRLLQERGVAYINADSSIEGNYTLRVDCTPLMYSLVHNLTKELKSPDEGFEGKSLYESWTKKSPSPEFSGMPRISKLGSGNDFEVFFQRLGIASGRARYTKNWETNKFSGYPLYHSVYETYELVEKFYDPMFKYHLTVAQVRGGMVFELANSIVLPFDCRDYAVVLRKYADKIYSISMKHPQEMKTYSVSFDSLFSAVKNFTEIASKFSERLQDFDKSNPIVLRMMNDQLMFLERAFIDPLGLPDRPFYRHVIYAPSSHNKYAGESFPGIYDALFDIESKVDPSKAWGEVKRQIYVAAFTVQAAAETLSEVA

SMILES: COc1cccc2c1C(=O)c1c(O)c3c(c(O)c1C2=O)C[C@@](O)(C(=O)CO)C[C@@H]3O[C@H]1C[C@H](N2C=CCC2)[C@H](O)[C@H](C)O1 [2-pyrrolinodoxorubicin]
- potency relative to doxorubicin [1]: 500-1000 times

SMILES: COc1ccc(C(=O)NCCOCCOCCOCCNC(=O)CCC(NC(=O)NC(CCC(=O)O)C(=O)O)C(=O)O)cc1 (stereo not drawn) [Compound 8]
- IC50 (PSMA): 8 nM

SMILES: CO[C@@H]1[C@H](O)C[C@@H](O[C@@H]2C[C@H](Oc3cc4cc5c(c(O)c4c(O)c3C)C(=O)[C@@H](O[C@H]3C[C@@H](O[C@H]4C[C@@H](O[C@H]6C[C@](C)(O)[C@@H](OC(C)=O)[C@H](C)O6)[C@H](O)[C@@H](C)O4)[C@H](O)[C@@H](C)O3)[C@H]([C@H](OC)C(=O)[C@@H](O)[C@@H](C)O)C5)O[C@H](C)[C@@H]2OC(C)=O)O[C@@H]1C [Chromomycin A3]
- concentrations at which cytotoxic [2]: subnanomolar concentrations
